Laboratory results reported in PMC6977966, “Inhibition of synucleinopathic seeding by rationally designed inhibitors” (eLife, 2020).
Read-outs that look alike come from different tables or passages of the source. Where a SMILES comes first, the peptide text is derived from it. Where no end group is shown, it is not given here. [ ]: non-standard residue; d: D form. Sar = CNCC(=O)O

What was measured:
α-syn fibrils = target: T1, α-syn fibrils (Homo sapiens, UniProt P37840); assay: SPR binding to immobilized sonicated, filtered α-syn fibrils; conditions: steady-state, 1:1 binding model, read-out: equilibrium dissociation constant Kd, α-syn fibril
T1 construct: made in house; host or cells: Escherichia coli BL21 (DE3) gold
Source text: Computational modeling predicted that our candidate peptidic inhibitors bind α-syn fibril seeds and prevent their growth and propagation. To obtain direct evidence of binding of our inhibitors to α-syn fibril seeds, we used surface plasmon resonance (SPR) (Figure 2A). For the SPR experiments, α-syn fibrils were immobilized on a CM5 sensor chip using standard amine coupling chemistry. For immobilization, mature α-syn fibrils were sonicated to form short fragments (Figure 2—figure supplement 1A) and then filtered through a 0.22-micron filter to remove large aggregates, retaining short fibrils (Figure 2—figure supplement 1A). We confirmed that short fibrils generated by sonication retain the ability to seed monomeric α-syn using an in vitro-seeded-aggregation assay. […] We then immobilized the sonicated and filtered α-syn fibrils on a CM5 SPR chip and measured affinities of our peptide inhibitors to the fibrils. […] The equilibrium dissociation constant (Kd) was calculated by steady-state analysis, fitting the data with 1:1 binding model (Figure 2B). […]
Figure 2. […] (B) The equilibrium dissociation constant (Kd) was calculated by fitting the plot of steady-state inhibitor binding levels (SPR signal at steady-state) against inhibitor concentration with 1:1 binding model. […]

monomeric α-syn = target: T2, monomeric α-syn (Homo sapiens, UniProt P37840); assay: SPR binding to immobilized α-syn monomers; conditions: Biacore T200, CM5 chip amine coupling, inhibitor 0.5–500 μM, 30 μl/min, PBS pH 7.4, 25°C, steady-state, 1:1 binding model, mean ± SD, performed thrice, read-out: dissociation constant Kd, α-syn monomer
T2 construct: prevent aggregation of full-length α-syn in vitro; made in house; host or cells: Escherichia coli BL21 (DE3) gold

[1] = ref Rodriguez et al., 2015; cited from earlier work
Source text: Based on the atomic structure of NACore [68-GAVVTGVTAVA-78] as a template, we applied computational and structure-based approaches to design peptidic inhibitors. […] The inhibitors were designed using Rosetta-based computational modeling to bind to the tip of the steric-zipper protofilament, thereby capping the fibrils (Figure 1A). We identified four candidates; S37, S61, S62 and S71 that are computed to bind favo ...

Compound | Kd (α-syn fibrils; Biacore T200, CM5 chip amine coupling, inhibitor 0.5–500 μM, 30 μl/min, PBS pH 7.4, 25°C, mean ± SD, performed thrice) | Kd (monomeric α-syn) | aggregation rate relative to NACore [1] | Kd (α-syn fibrils)
CC(C)[C@H](NC(=O)CN(C)C(=O)[C@@H](NC(=O)[C@@H](NC(=O)[C@@H](NC(=O)[C@H](C)NC(=O)[C@H](CCCNC(=N)N)NC(=O)[C@H](CCCNC(=N)N)NC(=O)[C@H](CCCNC(=N)N)NC(=O)[C@H](CCC(N)=O)NC(=O)[C@H](CCCNC(=N)N)NC(=O)[C@H](CCCNC(=N)N)NC(=O)[C@H](CCCCN)NC(=O)[C@H](CCCCN)NC(=O)[C@H](CCCNC(=N)N)NC(=O)CNC(=O)[C@@H](N)Cc1ccc(O)cc1)C(C)C)C(C)C)[C@@H](C)O)C(=O)N[C@H](C(=O)N[C@@H](C)C(=O)N[C@H](C(=O)N[C@@H](C)C(=O)N[C@@H](CCC(=O)O)C(=O)O)C(C)C)[C@@H](C)O [S71] (H-YGRKKRRQRRRAVVT[Sar]VTAVAE-OH) | 10.9 ± 0.11 µM | 116 ± 11.7 µM | – | –
AVVTGVTAV [69-AVVTGVTAV-77, smaller 9-residue segment within NACore] | – | – | aggregates slower than NACore | –
GAVVWGVTAVGRKKRRQRRRPQ [S61] | – | 62.8 ± 11.7 µM | – | 9.28 µM
